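Cultured in 96-well plates, cells were exposed to test compound for 48 hours across five concentrations. TGI: total growth inhibition.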
Key:
Assay in all cases: DTP human tumour cell line panel, 48 h
786-0 renal = tested on: 786-0 renal
A498 renal = tested on: A498 renal
A549 NSCLC = tested on: A549 NSCLC
ACHN renal = tested on: ACHN renal
BT-549 breast = tested on: BT-549 breast
CAKI-1 renal = tested on: CAKI-1 renal
CCRF-CEM leukemia = tested on: CCRF-CEM leukemia
COLO 205 colon = tested on: COLO 205 colon
DU-145 prostate = tested on: DU-145 prostate
EKVX NSCLC = tested on: EKVX NSCLC
HCC-2998 colon = tested on: HCC-2998 colon
HCT-116 colon = tested on: HCT-116 colon
HCT-15 colon = tested on: HCT-15 colon
HL-60(TB) leukemia = tested on: HL-60(TB) leukemia
HOP-62 NSCLC = tested on: HOP-62 NSCLC
HOP-92 NSCLC = tested on: HOP-92 NSCLC
HS 578T breast = tested on: HS 578T breast
HT29 colon = tested on: HT29 colon
IGROV1 ovarian = tested on: IGROV1 ovarian
K-562 leukemia = tested on: K-562 leukemia
KM12 colon = tested on: KM12 colon
LOX IMVI melanoma = tested on: LOX IMVI melanoma
M14 melanoma = tested on: M14 melanoma
MALME-3M melanoma = tested on: MALME-3M melanoma
MCF7 breast = tested on: MCF7 breast
MDA-MB-435 = tested on: MDA-MB-435
MDA-N = tested on: MDA-N
MOLT-4 leukemia = tested on: MOLT-4 leukemia
NCI-H226 lung = tested on: NCI-H226 lung
NCI-H23 lung = tested on: NCI-H23 lung
NCI-H522 lung = tested on: NCI-H522 lung
NCI/ADR-RES ovarian = tested on: NCI/ADR-RES ovarian
OVCAR-3 ovarian = tested on: OVCAR-3 ovarian
OVCAR-4 ovarian = tested on: OVCAR-4 ovarian
OVCAR-5 ovarian = tested on: OVCAR-5 ovarian
OVCAR-8 ovarian = tested on: OVCAR-8 ovarian
PC-3 prostate = tested on: PC-3 prostate
RPMI-8226 leukemia = tested on: RPMI-8226 leukemia
RXF 393 renal = tested on: RXF 393 renal
SF-268 CNS = tested on: SF-268 CNS
SF-295 CNS = tested on: SF-295 CNS
SF-539 CNS = tested on: SF-539 CNS
SK-MEL-2 melanoma = tested on: SK-MEL-2 melanoma
SK-MEL-28 melanoma = tested on: SK-MEL-28 melanoma
SK-MEL-5 melanoma = tested on: SK-MEL-5 melanoma
SK-OV-3 ovarian = tested on: SK-OV-3 ovarian
SN12C renal = tested on: SN12C renal
SNB-19 CNS = tested on: SNB-19 CNS
SNB-75 CNS = tested on: SNB-75 CNS
SR leukemia = tested on: SR leukemia
SW-620 colon = tested on: SW-620 colon
T-47D breast = tested on: T-47D breast
UACC-257 melanoma = tested on: UACC-257 melanoma
UACC-62 melanoma = tested on: UACC-62 melanoma
UO-31 renal = tested on: UO-31 renal
MDA-MB-231 breast = tested on: MDA-MB-231 breast
NCI-H460 lung = tested on: NCI-H460 lung
TK-10 renal = tested on: TK-10 renal
U251 CNS = tested on: U251 CNS

CCC(=O)Nc1ccc(NCC(=O)Nc2ccc(Cl)cc2)cc1
TGI (786-0 renal): 35.7 µM
TGI (A498 renal): 46 µM
TGI (A549 NSCLC): 56.5 µM
TGI (ACHN renal): 27.9 µM
TGI (BT-549 breast): 48.6 µM
TGI (CAKI-1 renal): 53.7 µM
TGI (CCRF-CEM leukemia): 60.3 µM
TGI (COLO 205 colon): 35.5 µM
TGI (DU-145 prostate): 35.6 µM
TGI (EKVX NSCLC): 28.2 µM
TGI (HCC-2998 colon): 26.7 µM
TGI (HCT-116 colon): 30.4 µM
TGI (HCT-15 colon): 36.4 µM
TGI (HL-60(TB) leukemia): 42.7 µM
TGI (HOP-62 NSCLC): 30.7 µM
TGI (HOP-92 NSCLC): 33.4 µM
TGI (HS 578T breast): > 100 µM
TGI (HT29 colon): 28 µM
TGI (IGROV1 ovarian): 64.4 µM
TGI (K-562 leukemia): > 100 µM
TGI (KM12 colon): 33 µM
TGI (LOX IMVI melanoma): 27.4 µM
TGI (M14 melanoma): 29.3 µM
TGI (MALME-3M melanoma): 34.8 µM
TGI (MCF7 breast): 29.8 µM
TGI (MDA-MB-435): 33.2 µM
TGI (MDA-N): 35.3 µM
TGI (MOLT-4 leukemia): 98.2 µM
TGI (NCI-H226 lung): 53.5 µM
TGI (NCI-H23 lung): 38.9 µM
TGI (NCI-H522 lung): 30.2 µM
TGI (NCI/ADR-RES ovarian): 93.6 µM
TGI (OVCAR-3 ovarian): 33.6 µM
TGI (OVCAR-4 ovarian): 33.3 µM
TGI (OVCAR-5 ovarian): 32.1 µM
TGI (OVCAR-8 ovarian): 94.4 µM
TGI (PC-3 prostate): 31.8 µM
TGI (RPMI-8226 leukemia): 70.3 µM
TGI (RXF 393 renal): 35.6 µM
TGI (SF-268 CNS): 55.4 µM
TGI (SF-295 CNS): > 100 µM
TGI (SF-539 CNS): 36.8 µM
TGI (SK-MEL-2 melanoma): 30.8 µM
TGI (SK-MEL-28 melanoma): 42.6 µM
TGI (SK-MEL-5 melanoma): 30.7 µM
TGI (SK-OV-3 ovarian): 64.1 µM
TGI (SN12C renal): 35.3 µM
TGI (SNB-19 CNS): 42 µM
TGI (SNB-75 CNS): 64.6 µM
TGI (SR leukemia): 94.1 µM
TGI (SW-620 colon): 74.9 µM
TGI (T-47D breast): 29.8 µM
TGI (UACC-257 melanoma): 36.8 µM
TGI (UACC-62 melanoma): 26.6 µM
TGI (UO-31 renal): 78.9 µM

Cc1ccc(N=C2SC(=S)N(CCC[N+](C)(C)C)C2=Nc2ccc(C)cc2)cc1
TGI (786-0 renal): 30.3 µM
TGI (A498 renal): 40.7 µM
TGI (A549 NSCLC): 33.8 µM
TGI (ACHN renal): 30.1 µM
TGI (BT-549 breast): 15.4 µM
TGI (CCRF-CEM leukemia): 58 µM
TGI (COLO 205 colon): 87.6 µM
TGI (EKVX NSCLC): 38.5 µM
TGI (HCC-2998 colon): 39.6 µM
TGI (HCT-116 colon): 25.4 µM
TGI (HCT-15 colon): 31.4 µM
TGI (HL-60(TB) leukemia): 5.86 µM
TGI (HOP-62 NSCLC): 52.7 µM
TGI (HOP-92 NSCLC): 31.6 µM
TGI (HS 578T breast): 24.6 µM
TGI (HT29 colon): 32.9 µM
TGI (IGROV1 ovarian): 26.6 µM
TGI (K-562 leukemia): 32.9 µM
TGI (KM12 colon): 50.1 µM
TGI (M14 melanoma): 46.1 µM
TGI (MALME-3M melanoma): 41.9 µM
TGI (MCF7 breast): 48.3 µM
TGI (MDA-MB-231 breast): 32.3 µM
TGI (MDA-N): 28.5 µM
TGI (MOLT-4 leukemia): 37.8 µM
TGI (NCI-H226 lung): 47 µM
TGI (NCI-H23 lung): 32.7 µM
TGI (NCI-H460 lung): 36.3 µM
TGI (OVCAR-5 ovarian): 29.7 µM
TGI (OVCAR-8 ovarian): 38.8 µM
TGI (PC-3 prostate): 28.3 µM
TGI (RPMI-8226 leukemia): 32 µM
TGI (RXF 393 renal): 18 µM
TGI (SK-MEL-2 melanoma): 35.9 µM
TGI (SK-MEL-28 melanoma): 23.7 µM
TGI (SK-MEL-5 melanoma): 27.5 µM
TGI (SN12C renal): 29.5 µM
TGI (SNB-19 CNS): 27.7 µM
TGI (SNB-75 CNS): 22.6 µM
TGI (SR leukemia): 27 µM
TGI (SW-620 colon): 41.4 µM
TGI (T-47D breast): 18.7 µM
TGI (TK-10 renal): 36.8 µM
TGI (U251 CNS): 26.6 µM
TGI (UACC-257 melanoma): 32 µM
TGI (UACC-62 melanoma): 22.3 µM
TGI (UO-31 renal): 37.8 µM

O=C1/C(=C\c2cccc(Oc3ccccc3)c2)SC(c2ccccc2)N1c1ccccc1Cl (stereo not drawn)
TGI (786-0 renal): > 100 µM
TGI (A498 renal): > 100 µM
TGI (A549 NSCLC): > 100 µM
TGI (ACHN renal): > 100 µM
TGI (BT-549 breast): 96.6 µM
TGI (CAKI-1 renal): > 100 µM
TGI (CCRF-CEM leukemia): 38.4 µM
TGI (COLO 205 colon): 49 µM
TGI (DU-145 prostate): > 100 µM
TGI (EKVX NSCLC): > 100 µM
TGI (HCC-2998 colon): 78.9 µM
TGI (HCT-116 colon): 50.7 µM
TGI (HCT-15 colon): > 100 µM
TGI (HL-60(TB) leukemia): > 100 µM
TGI (HOP-62 NSCLC): > 100 µM
TGI (HOP-92 NSCLC): 57.5 µM
TGI (HS 578T breast): 60.2 µM
TGI (HT29 colon): 49.9 µM
TGI (K-562 leukemia): > 100 µM
TGI (KM12 colon): 98.8 µM
TGI (LOX IMVI melanoma): 75.8 µM
TGI (M14 melanoma): > 100 µM
TGI (MALME-3M melanoma): > 100 µM
TGI (MCF7 breast): > 100 µM
TGI (MDA-MB-231 breast): > 100 µM
TGI (MDA-MB-435): 68 µM
TGI (MDA-N): 54.2 µM
TGI (MOLT-4 leukemia): > 100 µM
TGI (NCI-H226 lung): > 100 µM
TGI (NCI-H23 lung): 69.7 µM
TGI (NCI-H460 lung): > 100 µM
TGI (NCI-H522 lung): 48.5 µM
TGI (NCI/ADR-RES ovarian): > 100 µM
TGI (OVCAR-3 ovarian): > 100 µM
TGI (OVCAR-4 ovarian): > 100 µM
TGI (OVCAR-5 ovarian): > 100 µM
TGI (OVCAR-8 ovarian): 79.9 µM
TGI (RPMI-8226 leukemia): 55.3 µM
TGI (RXF 393 renal): 78.5 µM
TGI (SF-268 CNS): > 100 µM
TGI (SF-295 CNS): > 100 µM
TGI (SF-539 CNS): 39 µM
TGI (SK-MEL-2 melanoma): 92.4 µM
TGI (SK-MEL-28 melanoma): > 100 µM
TGI (SK-MEL-5 melanoma): 29.8 µM
TGI (SK-OV-3 ovarian): > 100 µM
TGI (SN12C renal): 96.9 µM
TGI (SNB-19 CNS): 76.4 µM
TGI (SR leukemia): > 100 µM
TGI (SW-620 colon): > 100 µM
TGI (T-47D breast): > 100 µM
TGI (TK-10 renal): > 100 µM
TGI (U251 CNS): 78.5 µM
TGI (UACC-257 melanoma): 85.8 µM
TGI (UACC-62 melanoma): > 100 µM
TGI (UO-31 renal): > 100 µM
